Here are results for 3 compounds from patent US4555518A, “Fluoroalkoxy substituted benzimidazoles useful as gastric acid secretion inhibitors” (Byk Gulden Lomberg Chemische Fabrik GmbH, priority 1983, dated 1985).

Experiment [1] concerns gastric secretion (HCl) (rat stomach). Put plainly: Shay rat: inhibition of gastric secretion (HCl) in the course of 4 h. Type of experiment: in vivo. To be noted: for ED25 / ED50: Rattus norvegicus, po, perorally, rats; for ED25: dose reducing HCl secretion (4 h) by 25% vs control; for ED50: dose reducing HCl secretion (4 h) by 50% vs control; for Gastric secretion (rats): % inhibition of HCl secretion: after administration of the antiulcerous ED50, perorally, 4 h. On the procedure: (§1) In these experiments, the compounds according to the invention were compared with prior art compounds (A-D) of European Patent Applications Nos. 0 005 129 and 0 074 341. The compounds investigated are numbered as follows: The influence of the compounds of the prior art and the compounds according to the invention on gastric lesion formation induced by pyloric ligature (4 h; so-called Shay rat) and oral administration of 100 mg/kg of acetylsalicyclic acid, and the gastric secretion (HCl) in the course of 4 h in rats is shown in the following table. | *ED25 and ED50 = dose which reduces the lesion index or the HCL | secretion(4h) in the rat stomach by 25 and, respectively, 50% in the | treated group in comparison with the control group. | **after administration of the antiulcerous ED50. The antiulcerogenic action was tested by the so-called Shay rat method: Ulcers are caused in rats which have been fasted for 24 hours (female, 180-200 g, 4 animals per cage on a high grid) by pyloric ligature (under diethyl ether anesthesia) and oral administration of 100 mg/10 ml/kg of acetylsalicylic acid. The substances to be tested are administered orally (10 ml/kg) one hour before the pyloric ligature. The wound is closed by means of Michel clamps. 4 hours thereafter, the animals are sacrificed under ether anesthesia by Atlas dislocation and resection of the stomach. The stomach is opened longitudinally and attached to a cork plate, after the amount of gastric juice secreted (volume) and later its HCl content (titration with sodium hydroxide solution) have first been determined; the number and size (=diameter) of the ulcers present are determined under a stereomicroscope at 10-fold magnification. The product of the degree of severity (according to the following points scale) and number of ulcers serves as the individual lesion index. The reduction in the average lesion index of each treated group compared with the control group (=100%) serves as a measure of the antiulcerogenic effect.

The test system of experiment [2] is gastric lesion formation (rat stomach). The experiment can be described thus: Shay rat: inhibition of gastric lesion formation induced by pyloric ligature and oral acetylsalicylic acid (protective effect on the stomach). To be noted: perorally, rats, 1 h before pyloric ligature, 4 h, 100 mg/kg acetylsalicylic acid, dose reducing lesion index by 50% vs control. It counts as in vivo. On the procedure:
as §1, with “group.” for “group. | **after administration of the antiulcerous ED50.”

Structures are written as SMILES.

As to `COc1ccnc(C[S+]([O-])c2nc3cc(OC(F)(F)C(F)F)ccc3[nH]2)c1C` (stereo not drawn) [Serial No. 6, 2-[(4-methoxy-3-methyl-2-pyridyl)methylsulfinyl]-5-(1,1,2,2-tetrafluoroethoxy)-1H-benzimidazole], in experiment [1], the ED25 was 0.3 mg/kg, the ED50 came to 0.7 mg/kg and the “Gastric secretion (rats): % inhibition of HCl secretion” value (“Gastric secretion (rats): % inhibition” for short) is 35%. In experiment [2], it took a dose of 0.5 mg/kg to reach the 50% effect level (ED50).

For the compound `COc1c(C)cnc(CSc2nc3cc(OC(F)(F)F)ccc3[nH]2)c1C` [Serial No. 9, 2-[(4-methoxy-3,5-dimethyl-2-pyridyl)methylthio]-5-trifluoromethoxy-1H-benzimidazole], in experiment [1], the ED25 was found to be 1.4 mg/kg, the ED50 is 2 mg/kg and the “Gastric secretion (rats): % inhibition” value worked out at 10%. In experiment [2], this compound gave an ED50 of 1 mg/kg.

Take `COc1ccnc(CSc2nc3cc(OC(F)(F)C(F)F)ccc3[nH]2)c1C` [Serial No. 7, 2-[(4-methoxy-3-methyl-2-pyridyl)methylthio]-5-(1,1,2,2-tetrafluoroethoxy)-1H-benzimidazole]: in experiment [1], the ED25 stood at 0.35 mg/kg, the 50% effect level (ED50) was put at a dose of 0.7 mg/kg and the “Gastric secretion (rats): % inhibition” value is 40%. In experiment [2], this compound registered an ED50 of 0.5 mg/kg.

By ED50 is commonly meant the midpoint of the dose-response relation.
